Results: patent publication EP2100894A1, “Pyridopyrimidines used as Plk1 (polo-like kinase) inhibitors” (4SC AG, priority 2008, dated 2009)

Molecular target: T1, PIk1 (Homo sapiens, UniProt P53350)
T1 construct: His tag (histidine tag) (N); made in house; host or cells: SF9 insect cells
Test: PIk1 kinase activity inhibition assay (33P incorporation into alpha casein, flash plates)
Assay type: biochemical
Settings: recombinant N-terminally histidine-tagged PIk1, alpha casein as substrate, 100 nM Li-ATP, 80 minutes at 30°C
Description: The inhibition of PIk1 kinase activity can be measured using recombinant PIk1 protein expressed as an N-terminally histidine-tagged protein in SF9 insect cells and alpha casein as substrate. The PIk1 assay is run in 96 well plates by incubating 50 to 100 ng per well recombinant PIk1, 500 ng per well alpha casein (Sigma, # C-6780) as substrate, 10 µl of compound of invention (test compounds were dissolved as 20 mM solutions in dimethylsulfoxide (DMSO) and subsequently diluted), and 100 nM Li-ATP (including ^33P-ATP) in 100 µl of reaction buffer ([…], pH 7.5; 3 mM MgCl2; 3 mM MnCl2; 3 µM Na-Orthovanadat; 1 mM DTT; 1 µg/ml PEG 8000) for 80 minutes at 30°C. The reactions are terminated by adding 100 µl stopping buffer (2% H3PO4 for 5 minutes) and are washed 3 times with washing solution (0,9% NaCl). Determining ^33P incorporated into the protein substrate alpha casein, the detection is based on the adhesion of the phosphorylated protein to the surface of scintillator-coated flash plates (Perkin Elmer, USA; # SMP-200). Phosphorylation of alpha casein is measured by counting the radioactivity bound to the plate for 60 sec. using a plate reader (Perkin Elmer, USA; Wallac Microbeta). By this method, the IC50 value of the PIk1 inhibition is determined as described above. […]

T1 sequence (P53350 whole entry): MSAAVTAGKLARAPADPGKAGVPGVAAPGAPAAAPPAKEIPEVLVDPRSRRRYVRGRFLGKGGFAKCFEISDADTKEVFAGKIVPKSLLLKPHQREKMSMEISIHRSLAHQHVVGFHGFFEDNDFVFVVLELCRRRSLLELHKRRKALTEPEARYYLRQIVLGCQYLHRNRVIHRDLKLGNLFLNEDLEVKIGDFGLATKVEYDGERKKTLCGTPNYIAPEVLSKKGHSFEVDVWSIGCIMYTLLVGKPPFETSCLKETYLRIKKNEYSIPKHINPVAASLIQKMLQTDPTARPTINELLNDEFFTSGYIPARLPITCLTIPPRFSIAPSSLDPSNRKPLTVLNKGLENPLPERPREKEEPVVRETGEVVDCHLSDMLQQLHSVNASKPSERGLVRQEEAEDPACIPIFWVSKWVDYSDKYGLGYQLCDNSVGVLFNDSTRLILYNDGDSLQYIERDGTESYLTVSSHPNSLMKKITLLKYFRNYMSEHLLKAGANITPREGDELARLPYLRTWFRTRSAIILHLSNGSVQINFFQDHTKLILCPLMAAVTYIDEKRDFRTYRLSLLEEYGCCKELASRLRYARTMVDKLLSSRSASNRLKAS

Compound	IC50
COc1cc(C(=O)NC2CCN(C)CC2)ccc1Nc1ncc2c(cc(OCc3ccccc3)c(=O)n2C)n1 [Example 1, 4-{[7-(benzyloxy)-5-methyl-6-oxo-5,6-dihydropyrido[3,2-d]pyrimidin-2-yl]amino}-3-methoxy-N-(1-methylpiperidin-4-yl)benzamide]	< 1 µM
C/C=C/c1c(OC)c(=O)n(C)c2cnc(Nc3ccc(C(=O)NC4CCN(C)CC4)cc3OC)nc12 [Example 2, 3-methoxy-4-({7-methoxy-5-methyl-6-oxo-8-[(E)-prop-1-en-1-yl]-5,6-dihydropyrido[3,2-d]pyrimidin-2-yl}amino)-N-(1-methylpiperidin-4-yl)benzamide]	< 0.1 µM
COc1cc(C(=O)NC2CCN(C)CC2)ccc1Nc1ncc2c(n1)c(-c1ccccc1)c(OC)c(=O)n2C [Example 3, 3-methoxy-4-[(7-methoxy-5-methyl-6-oxo-8-phenyl-5,6-dihydropyrido[3,2-d]pyrimidin-2-yl)amino]-N-(1-methylpiperidin-4-yl)benzamide]	< 0.1 µM
COc1cc(C(=O)NC2CCN(C)CC2)ccc1Nc1ncc2c(n1)c(-c1ccsc1)c(OC)c(=O)n2C [Example 4, 3-methoxy-4-{[7-methoxy-5-methyl-6-oxo-8-(3-thienyl)-5,6-dihydro-pyrido[3,2-d]pyrimidin-2-yl]amino}-N-(1-methylpiperidin-4-yl)benzamide]	< 0.01 µM
COc1cc(C(=O)NC2CCN(C)CC2)ccc1Nc1ncc2c(n1)c(-c1cccs1)c(OC)c(=O)n2C [Example 5, 3-methoxy-4-{[7-methoxy-5-methyl-6-oxo-8-(2-thienyl)-5,6-dihydro-pyrido[3,2-d]pyrimidin-2-yl]amino}-N-(1-methylpiperidin-4-yl)benzamide]	< 0.1 µM
COc1cc(C(=O)NC2CCN(C)CC2)ccc1Nc1ncc2c(n1)c(C1=CCCC1)c(OC)c(=O)n2C [Example 6, 4-[(8-cyclopent-1-en-1-yl-7-methoxy-5-methyl-6-oxo-5,6-dihydropyrido[3,2-d]pyrimidin-2-yl)amino]-3-methoxy-N-(1-methylpiperidin-4-yl)benzamide]	< 0.1 µM
COc1cc(C(=O)NC2CCN(C)CC2)ccc1Nc1ncc2c(cc(OCC3CC3)c(=O)n2C)n1 [Example 7, 4-{[7-(cyclopropylmethoxy)-5-methyl-6-oxo-5,6-dihydropyrido[3,2-d]pyrimidin-2-yl]amino}-3-methoxy-N-(1-methylpiperidin-4-yl)benzamide]	< 0.1 µM
COc1cc(C(=O)NC2CCN(C)CC2)ccc1Nc1ncc2c(cc(OCC3CCCC3)c(=O)n2C)n1 [Example 8, 4-{[7-(cyclopentylmethoxy)-5-methyl-6-oxo-5,6-dihydropyrido[3,2-d]pyrimidin-2-yl]amino}-3-methoxy-N-(1-methylpiperidin-4-yl)benzamide]	< 0.1 µM
COc1cc(C(=O)NC2CCN(C)CC2)ccc1Nc1ncc2c(cc(OCC3CCCCC3)c(=O)n2C)n1 [Example 9, 4-{[7-(cyclohexylmethoxy)-5-methyl-6-oxo-5,6-dihydropyrido[3,2-d]pyrimidin-2-yl]amino}-3-methoxy-N-(1-methylpiperidin-4-yl)benzamide]	< 1 µM
COc1cc(C(=O)NC2CCN(C)CC2)ccc1Nc1ncc2c(n1)c(-c1ccco1)c(OC)c(=O)n2C [Example 10, 4-{[8-(2-furyl)-7-methoxy-5-methyl-6-oxo-5,6-dihydropyrido[3,2-d]pyrimidin-2-yl]amino}-3-methoxy-N-(1-methylpiperidin-4-yl)benzamide]	< 0.1 µM
COc1cc(C(=O)NC2CCN(C)CC2)ccc1Nc1ncc2c(n1)c(-c1ccoc1)c(OC)c(=O)n2C [Example 11, 4-{[8-(3-furyl)-7-methoxy-5-methyl-6-oxo-5,6-dihydropyrido[3,2-d]pyrimidin-2-yl]amino}-3-methoxy-N-(1-methylpiperidin-4-yl)benzamide]	< 0.1 µM
COc1cc(C(=O)NC2CCN(C)CC2)ccc1Nc1ncc2c(cc(OCC3CCOC3)c(=O)n2C)n1 (centres unmarked) [Example 12, 3-methoxy-4-{[5-methyl-6-oxo-7-(tetrahydrofuran-3-ylmethoxy)-5,6-dihydropyrido[3,2-d]pyrimidin-2-yl]amino}-N-(1-methylpiperidin-4-yl)benzamide]	< 1 µM
COc1cc(C(=O)NC2CCN(C)CC2)ccc1Nc1ncc2c(cc(OCC3CCCO3)c(=O)n2C)n1 (centres unmarked) [Example 13, 3-methoxy-4-{[5-methyl-6-oxo-7-(tetrahydrofuran-2-ylmethoxy)-5,6-dihydropyrido[3,2-d]pyrimidin-2-yl]amino}-N-(1-methylpiperidin-4-yl)benzamide]	< 1 µM
COc1cc(C(=O)NC2CCN(C)CC2)ccc1Nc1ncc2c(n1)c(C1CCCC1)c(OC)c(=O)n2C [Example 14, 4-[(8-cyclopentyl-7-methoxy-5-methyl-6-oxo-5,6-dihydropyrido[3,2-d]pyrimidin-2-yl)amino]-3-methoxy-N-(1-methylpiperidin-4-yl)benzamide]	< 0.1 µM
COc1cc(C(=O)NC2CCN(C)CC2)ccc1Nc1ncc2c(n1)c(C1=C(C)CCC1)c(OC)c(=O)n2C [Example 15, 3-methoxy-4-{[7-methoxy-5-methyl-8-(2-methylcyclopent-1-en-1-yl)-6-oxo-5,6-dihydropyrido[3,2-d]pyrimidin-2-yl]amino}-N-(1-methylpiperidin-4-yl)benzamide]	< 1 µM

The remaining lines, values ahead:

IC50	Compound
< 1 µM	COc1cc(C(=O)NC2CCN(C)CC2)ccc1Nc1ncc2c(n1)c(Cl)c(OC)c(=O)n2C [Example 16, 4-[(8-chloro-7-methoxy-5-methyl-6-oxo-5,6-dihydropyrido[3,2-d]pyrimidin-2-yl)amino]-3-methoxy-N-(1-methylpiperidin-4-yl)benzamide]
< 1 µM	COc1cc(C(=O)NC2CCN(C)CC2)ccc1Nc1ncc2c(n1)c(C1=C(C)CCCC1)c(OC)c(=O)n2C [Example 17, 3-methoxy-4-{[7-methoxy-5-methyl-8-(2-methylcyclohex-1-en-1-yl)-6-oxo-5,6-dihydropyrido[3,2-d]pyrimidin-2-yl]amino}-N-(1-methylpiperidin-4-yl)benzamide]
< 0.1 µM	C/C=C/c1c(OCC)c(=O)n(C)c2cnc(Nc3ccc(C(=O)NC4CCN(C)CC4)cc3OC)nc12 [Example 18, 4-({7-ethoxy-5-methyl-6-oxo-8-[(1E)-prop-1-en-1-yl]-5,6-dihydropyrido[3,2-d]pyrimidin-2-yl}amino)-3-methoxy-N-(1-methylpiperidin-4-yl)benzamide]
< 0.1 µM	COc1cc(C(=O)NC2CCN(C)CC2)ccc1Nc1ncc2c(n1)c(C1CC1)c(OC)c(=O)n2C [Example 19, 4-[(8-cyclopropyl-7-methoxy-5-methyl-6-oxo-5,6-dihydropyrido[3,2-d]pyrimidin-2-yl)amino]-3-methoxy-N-(1-methylpiperidin-4-yl)benzamide]
< 0.1 µM	C/C=C/c1c(OC)c(=O)n(C)c2cnc(Nc3ccc(C(=O)NCc4cncn4C)cc3OC)nc12 [Example 20, 3-methoxy-4-({7-methoxy-5-methyl-6-oxo-8-[(1E)-prop-1-en-1-yl]-5,6-dihydropyrido[3,2-d]pyrimidin-2-yl}amino)-N-[(1-methyl-1H-imidazol-5-yl)methyl]benzamide]
< 1 µM	COc1cc(C(=O)NC2CCN(C)CC2)ccc1Nc1ncc2c(cc(OC)c(=O)n2C)n1 [Example 21, 3-methoxy-4-[(7-methoxy-5-methyl-6-oxo-5,6-dihydropyrido[3,2-d]pyrimidin-2-yl)amino]-N-(1-methylpiperidin-4-yl)benzamide]
< 0.1 µM	C=C(C)c1c(OC)c(=O)n(C)c2cnc(Nc3ccc(C(=O)NC4CCN(C)CC4)cc3OC)nc12 [Example 22, 4-[(8-isopropenyl-7-methoxy-5-methyl-6-oxo-5,6-dihydropyrido[3,2-d]pyrimidin-2-yl)amino]-3-methoxy-N-(1-methylpiperidin-4-yl)benzamide]
< 1 µM	COc1cc(C(=O)NC2CCN(C)CC2)ccc1Nc1ncc2c(n1)c(CC1=CCOC1)c(OC)c(=O)n2C [Example 23, 4-{[8-(2,5-dihydrofuran-3-ylmethyl)-7-methoxy-5-methyl-6-oxo-5,6-dihydropyrido[3,2-d]pyrimidin-2-yl]amino}-3-methoxy-N-(1-methylpiperidin-4-yl)benzamide]
< 1 µM	COc1cc(C(=O)NC2CCN(C)CC2)ccc1Nc1ncc2c(n1)c(C(C)C)c(OC)c(=O)n2C [Example 24, 4-[(8-isopropyl-7-methoxy-5-methyl-6-oxo-5,6-dihydropyrido[3,2-d]pyrimidin-2-yl)amino]-3-methoxy-N-(1-methylpiperidin-4-yl)benzamide]
< 1 µM	C/C=C/c1c(OC)c(=O)n(C)c2cnc(Nc3ccc(C(=O)NC4CCN(CC)CC4)cc3OC)nc12 [Example 25, N-(1-ethylpiperidin-4-yl)-3-methoxy-4-({7-methoxy-5-methyl-6-oxo-8-[(1E)-prop-1-en-1-yl]-5,6-dihydropyrido[3,2-d]pyrimidin-2-yl}amino)benzamide]
< 0.1 µM	C/C=C/c1c(OC)c(=O)n(C)c2cnc(Nc3ccc(C(=O)NCC4CCN(C)CC4)cc3OC)nc12 [Example 26, 3-methoxy-4-({7-methoxy-5-methyl-6-oxo-8-[(1E)-prop-1-en-1-yl]-5,6-dihydropyrido[3,2-d]pyrimidin-2-yl}amino)-N-[(1-methylpiperidin-4-yl)methyl]benzamide]
